Data taken from patent US20140057915A1, “KINASE INHIBITORS” (TOPIVERT PHARMA LIMITED, priority 2012, published 2014).

Key:
cSrc = cSrc (Homo sapiens, UniProt P12931); assay: c-Src enzyme inhibition (FRET); type: biochemical; details: Table 4a1
Method in brief: (§1)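 2 hr RT enzyme + cpd (added solns 4/0.4/0.04/0.004 μg/mL); + FRET peptide (8 μM soln) + ATP soln (c-Src 800 μM, Syk 60 μM), 1 hr; protease development 1 hr; read donor/acceptor emission ratio.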

Syk = Syk (Homo sapiens, UniProt P43405); assay: Syk enzyme inhibition (FRET); type: biochemical; details: Table 4a1
Method in brief: as §1

GSK3α = GSK3α (Homo sapiens, UniProt P49840); assay: GSK 3α enzyme inhibition (FRET), Method 1; type: biochemical; details: Table 4a1
Method in brief: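 GSK3α was preincubated with test compound for 2 hr at RT, then a FRET peptide substrate and ATP were added for 1 hr. Protease development for 1 hr cleaved only non-phosphorylated peptide, and phosphorylation was read as the coumarin/fluorescein emission ratio. Concentrations given are those of the added solutions: enzyme 500 ng/mL, peptide 8 μM, ATP 40 μM.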

[1] = system: TNFα release, d-U937 cells; assay: LPS-induced TNFα release in d-U937 cells; type: cell-based; details: Homo sapiens, dU937; relative to 10 μg/mL BIRB796; Table 4c1; read-out: LPS Induced Release of Cytokine in d-U937 Cells, TNFα REC50
Method in brief: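 U937 cells differentiated with PMA (100 ng/mL, 48–72 hr), pre-treated with compound for 2 hr, then stimulated with E. coli LPS (0.1 μg/mL) for 4 hr. Supernatant cytokine measured by sandwich ELISA; inhibition versus vehicle control, REC50 from concentration-response curve.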

[2] = system: IL-8 release, d-U937 cells; assay: LPS-induced IL-8 release in d-U937 cells; type: cell-based; details: Homo sapiens, dU937; Table 4c1; read-out: LPS Induced Release of Cytokine in d-U937 Cells, IL-8 IC50
Method in brief: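 IL-8 release after a 4 hr challenge with LPS (0.1 μg/mL, E. coli 0111:B4) following a 2 hr compound pretreatment. Cells were human U937 monocytes differentiated to macrophage-type with PMA 100 ng/mL for 48–72 hr. Relative 50% effective concentration derived from concentration–response data.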

[3] = system: ICAM-1 expression, BEAS2B cells; assay: Poly I:C-induced ICAM-1 expression in BEAS2B cells; type: cell-based; details: Homo sapiens, BEAS-2B; read-out: Poly IC induced ICAM1 in BEAS2B, IC50
Method in brief: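 BEAS2B human bronchial epithelial cells pre-incubated 2 h with compound, then transfected with poly I:C (1 μg/mL) plus Oligofectamine. After 18 h, cell-surface ICAM-1 read by cell-based ELISA (A450–655), normalised to Crystal Violet cell number (A595); inhibition calculated against vehicle control at each concentration.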

d-U937 cells = assay: Cell viability: MTT assay; type: cell-based, human; details: 1 μg/mL
Method in brief: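 Differentiated U937 cells exposed to compound at 1 or 10 μg/mL, either 4 h in 5% FCS or 24 h in 10% FCS RPMI1640. MTT then added for 1 h, formazan dissolved in DMSO and read at 550 nm. Viability loss given as % versus 0.5% DMSO vehicle; apparent gains appear negative.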

Chain of cSrc (P12931 whole entry): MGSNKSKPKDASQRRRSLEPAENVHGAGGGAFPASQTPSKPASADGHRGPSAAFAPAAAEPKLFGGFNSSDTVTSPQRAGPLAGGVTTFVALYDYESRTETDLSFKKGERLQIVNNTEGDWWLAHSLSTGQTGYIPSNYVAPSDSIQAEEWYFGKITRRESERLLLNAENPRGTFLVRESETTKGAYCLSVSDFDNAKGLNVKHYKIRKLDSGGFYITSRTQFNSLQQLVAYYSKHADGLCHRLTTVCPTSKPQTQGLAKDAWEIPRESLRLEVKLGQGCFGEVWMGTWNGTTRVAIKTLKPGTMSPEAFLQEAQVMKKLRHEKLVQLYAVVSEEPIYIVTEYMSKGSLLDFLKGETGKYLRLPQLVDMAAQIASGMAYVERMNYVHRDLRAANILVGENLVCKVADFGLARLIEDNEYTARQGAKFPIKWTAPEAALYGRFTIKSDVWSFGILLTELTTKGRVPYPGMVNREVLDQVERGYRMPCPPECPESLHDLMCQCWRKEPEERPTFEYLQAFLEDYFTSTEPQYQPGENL
Chain of GSK3α (P49840 whole entry): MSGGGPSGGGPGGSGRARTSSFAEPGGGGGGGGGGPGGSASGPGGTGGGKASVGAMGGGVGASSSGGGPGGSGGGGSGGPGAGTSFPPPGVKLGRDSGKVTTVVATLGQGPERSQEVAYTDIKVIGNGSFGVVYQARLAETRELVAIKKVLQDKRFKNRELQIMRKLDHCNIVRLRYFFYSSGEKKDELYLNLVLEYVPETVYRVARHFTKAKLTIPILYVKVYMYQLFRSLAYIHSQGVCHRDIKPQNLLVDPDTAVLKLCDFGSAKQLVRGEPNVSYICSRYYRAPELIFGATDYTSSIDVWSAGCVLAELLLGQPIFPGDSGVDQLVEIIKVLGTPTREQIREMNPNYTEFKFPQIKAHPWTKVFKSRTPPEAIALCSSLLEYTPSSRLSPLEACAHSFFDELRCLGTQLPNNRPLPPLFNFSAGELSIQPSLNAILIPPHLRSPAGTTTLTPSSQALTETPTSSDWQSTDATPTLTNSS

## COc1cc(C(=O)NCCN(C)C)ccc1Nc1nccc(Oc2ccc(NC(=O)Nc3cc(C(C)C)nn3-c3ccc(C)cc3)c3ccccc23)n1 [Example 35, N-(2-(dimethylamino)ethyl)-4-((4-((4-(3-(3-isopropyl-1-(p-tolyl)-1H-pyrazol-5-yl)ureido)naphthalen-1-yl)oxy)pyrimidin-2-yl)amino)-3-methoxybenzamide]
cSrc
  IC50: < 1 nM
Syk
  IC50: 30 nM
GSK3α
  IC50: > 14000 nM
[1]
  EC50: 27.8 nM
[2]
  IC50: 3.2 nM
[3]
  IC50: 140 nM
d-U937 cells
  Cell viability at time point in d-U937 cells, 4 h: −ve (−ve and +ve indicate that the value is below and above respectively, the no significant effect threshold, defined as 30% inhibition at 1 μg/mL at the time point indicated)
  Cell viability at time point in d-U937 cells, 24 h: −ve (−ve and +ve indicate that the value is below and above respectively, the no significant effect threshold, defined as 30% inhibition at 1 μg/mL at the time point indicated)

## COc1cc(C(=O)NCCN2CCOCC2)ccc1Nc1nccc(Oc2ccc(NC(=O)Nc3cc(C(C)(C)C)nn3-c3ccc(C)cc3)c3ccccc23)n1 [Example 37, 4-((4-((4-(3-(3-(tert-butyl)-1-(p-tolyl)-1H-pyrazol-5-yl)ureido)naphthalen-1-yl)oxy)pyrimidin-2-yl)amino)-3-methoxy-N-(2-morpholinoethyl)benzamide]
cSrc
  IC50: 27 nM
Syk
  IC50: 149 nM
GSK3α
  IC50: > 13000 nM
[1]
  EC50: 3.7 nM
[2]
  IC50: 24.1 nM
[3]
  IC50: 19.6 nM
d-U937 cells
  Cell viability at time point in d-U937 cells, 4 h: −ve (−ve and +ve indicate that the value is below and above respectively, the no significant effect threshold, defined as 30% inhibition at 1 μg/mL at the time point indicated)
  Cell viability at time point in d-U937 cells, 24 h: −ve (−ve and +ve indicate that the value is below and above respectively, the no significant effect threshold, defined as 30% inhibition at 1 μg/mL at the time point indicated)

## COc1ccc(-n2nc(C(C)C)cc2NC(=O)Nc2ccc(Oc3ccnc(Nc4ccc(C(=O)NCCN5CCOCC5)cc4OC)n3)c3ccccc23)cc1 [Example 38, 4-((4-((4-(3-(3-isopropyl-1-(4-methoxyphenyl)-1H-pyrazol-5-yl)ureido)naphthalen-1-yl)oxy)pyrimidin-2-yl)amino)-3-methoxy-N-(2-morpholinoethyl)benzamide]
cSrc
  IC50: 9 nM
Syk
  IC50: 54 nM
GSK3α
  IC50: > 13000 nM
[1]
  EC50: 20.2 nM
[2]
  IC50: 60.6 nM
[3]
  IC50: 35.7 nM
d-U937 cells
  Cell viability at time point in d-U937 cells, 4 h: −ve (−ve and +ve indicate that the value is below and above respectively, the no significant effect threshold, defined as 30% inhibition at 1 μg/mL at the time point indicated)
  Cell viability at time point in d-U937 cells, 24 h: −ve (−ve and +ve indicate that the value is below and above respectively, the no significant effect threshold, defined as 30% inhibition at 1 μg/mL at the time point indicated)

## COc1cc(C(=O)NCCO)ccc1Nc1nccc(Oc2ccc(NC(=O)Nc3cc(C(C)C)nn3-c3ccc(C)cc3)c3ccccc23)n1 [Example 39, N-(2-hydroxyethyl)-4-((4-((4-(3-(3-isopropyl-1-(p-tolyl)-1H-pyrazol-5-yl)ureido)naphthalen-1-yl)oxy)pyrimidin-2-yl)amino)-3-methoxybenzamide]
cSrc
  IC50: 8 nM
Syk
  IC50: 130 nM
GSK3α
  IC50: > 14600 nM
[1]
  EC50: 3.6 nM
[2]
  IC50: 15.7 nM
[3]
  IC50: 146 nM
d-U937 cells
  Cell viability at time point in d-U937 cells, 4 h: −ve (−ve and +ve indicate that the value is below and above respectively, the no significant effect threshold, defined as 30% inhibition at 1 μg/mL at the time point indicated)
  Cell viability at time point in d-U937 cells, 24 h: −ve (−ve and +ve indicate that the value is below and above respectively, the no significant effect threshold, defined as 30% inhibition at 1 μg/mL at the time point indicated)

## COc1ccc(-n2nc(C(C)(C)C)cc2NC(=O)Nc2ccc(Oc3ccnc(Nc4cc(OC)cc(C(N)=O)c4)n3)c3ccccc23)cc1 [Example 41, 3-((4-((4-(3-(3-(tert-butyl)-1-(4-methoxyphenyl)-1H-pyrazol-5-yl)ureido)naphthalen-1-yl)oxy)pyrimidin-2-yl)amino)-5-methoxybenzamide]
cSrc
  IC50: 10 nM
Syk
  IC50: 15 nM
GSK3α
  IC50: 1200 nM
[1]
  EC50: 0.4 nM
[2]
  IC50: 0.4 nM
[3]
  IC50: 2 nM
d-U937 cells
  Cell viability at time point in d-U937 cells, 4 h: −ve (−ve and +ve indicate that the value is below and above respectively, the no significant effect threshold, defined as 30% inhibition at 1 μg/mL at the time point indicated)
  Cell viability at time point in d-U937 cells, 24 h: −ve (−ve and +ve indicate that the value is below and above respectively, the no significant effect threshold, defined as 30% inhibition at 1 μg/mL at the time point indicated)

## COc1cc(Nc2nccc(Oc3ccc(NC(=O)Nc4cc(C(C)(C)C)nn4-c4ccc(C)cc4)c4ccccc34)n2)cc(C(=O)NCCN(C)C)c1 [Example 43, 3-((4-((4-(3-(3-(tert-butyl)-1-(p-tolyl)-1H-pyrazol-5-yl)ureido)naphthalen-1-yl)oxy)pyrimidin-2-yl)amino)-N-(2-(dimethylamino)ethyl)-5-methoxybenzamide]
cSrc
  IC50: 2 nM
Syk
  IC50: 7 nM
GSK3α
  IC50: 197 nM
[1]
  EC50: 0.2 nM
[2]
  IC50: 0.6 nM
[3]
  IC50: 0.4 nM
d-U937 cells
  Cell viability at time point in d-U937 cells, 4 h: −ve (−ve and +ve indicate that the value is below and above respectively, the no significant effect threshold, defined as 30% inhibition at 1 μg/mL at the time point indicated)
  Cell viability at time point in d-U937 cells, 24 h: −ve (−ve and +ve indicate that the value is below and above respectively, the no significant effect threshold, defined as 30% inhibition at 1 μg/mL at the time point indicated)

## COc1ccc(-n2nc(C(C)C)cc2NC(=O)Nc2ccc(Oc3ccnc(Nc4cc(C(=O)NCCN5CCOCC5)cc(C(F)(F)F)c4)n3)c3ccccc23)cc1 [Example 47, 3-((4-((4-(3-(3-isopropyl-1-(4-methoxyphenyl)-1H-pyrazol-5-yl)ureido)naphthalen-1-yl)oxy)pyrimidin-2-yl)amino)-N-(2-morpholinoethyl)-5-(trifluoromethyl)benzamide]
cSrc
  IC50: 5 nM
Syk
  IC50: 12 nM
GSK3α
  IC50: 2850 nM
[1]
  EC50: 0.8 nM
[2]
  IC50: 1.4 nM
[3]
  IC50: 3.6 nM
d-U937 cells
  Cell viability at time point in d-U937 cells, 4 h: −ve (−ve and +ve indicate that the value is below and above respectively, the no significant effect threshold, defined as 30% inhibition at 1 μg/mL at the time point indicated)
  Cell viability at time point in d-U937 cells, 24 h: −ve (−ve and +ve indicate that the value is below and above respectively, the no significant effect threshold, defined as 30% inhibition at 1 μg/mL at the time point indicated)

## COc1cc(Nc2nccc(Oc3ccc(NC(=O)Nc4cc(C(F)(F)F)nn4-c4ccc(C)cc4)c4ccccc34)n2)cc(C(=O)NCCN2CCOCC2)c1 [Example 48, 3-methoxy-N-(2-morpholinoethyl)-5-((4-((4-(3-(1-(p-tolyl)-3-(trifluoromethyl)-1H-pyrazol-5-yl)ureido)naphthalen-1-yl)oxy)pyrimidin-2-yl)amino)benzamide]
cSrc
  IC50: 5 nM
Syk
  IC50: 78 nM
GSK3α
  IC50: > 12800 nM
[1]
  EC50: 3.5 nM
[2]
  IC50: 20.6 nM
[3]
  IC50: 32.3 nM
d-U937 cells
  Cell viability at time point in d-U937 cells, 4 h: −ve (−ve and +ve indicate that the value is below and above respectively, the no significant effect threshold, defined as 30% inhibition at 1 μg/mL at the time point indicated)
  Cell viability at time point in d-U937 cells, 24 h: −ve (−ve and +ve indicate that the value is below and above respectively, the no significant effect threshold, defined as 30% inhibition at 1 μg/mL at the time point indicated)

## COc1cc(Nc2nccc(Oc3ccc(NC(=O)Nc4cc(C(C)(C)C)nn4-c4ccc(C)cc4)c4ccccc34)n2)cc(C(=O)NCCN2CCOCC2)c1 [Example 52, 3-((4-((4-(3-(3-(tert-butyl)-1-(p-tolyl)-1H-pyrazol-5-yl)ureido)naphthalen-1-yl)oxy)pyrimidin-2-yl)amino)-5-methoxy-N-(2-morpholinoethyl)benzamide]
cSrc
  IC50: 3 nM
Syk
  IC50: 6 nM
GSK3α
  IC50: 247 nM
[1]
  EC50: 0.3 nM
[2]
  IC50: 1.5 nM
[3]
  IC50: 5 nM
d-U937 cells
  Cell viability at time point in d-U937 cells, 4 h: −ve (−ve and +ve indicate that the value is below and above respectively, the no significant effect threshold, defined as 30% inhibition at 1 μg/mL at the time point indicated)
  Cell viability at time point in d-U937 cells, 24 h: −ve (−ve and +ve indicate that the value is below and above respectively, the no significant effect threshold, defined as 30% inhibition at 1 μg/mL at the time point indicated)
